Assay results: PubChem BioAssay (NCI)
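96-well plates; 48 h exposure; 5 concentrations. Endpoints by linear interpolation between flanking doses. Not reached: highest tested concentration assigned. TGI: concentration producing complete growth inhibition.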

Experiments:
Experiment in all cases: NCI-60 cell line screen, 48 h
DLD-1 colon = test system: DLD-1 colon
DMS 273 small cell lung = test system: DMS 273 small cell lung
KM20L2 colon = test system: KM20L2 colon
LXFL 529 NSCLC = test system: LXFL 529 NSCLC
RXF-631 renal = test system: RXF-631 renal
SNB-78 CNS = test system: SNB-78 CNS
XF 498 CNS = test system: XF 498 CNS
HOP-18 NSCLC = test system: HOP-18 NSCLC

SMILES	TGI (DLD-1 colon)	TGI (DMS 273 small cell lung)	TGI (KM20L2 colon)	TGI (LXFL 529 NSCLC)	TGI (RXF-631 renal)	TGI (SNB-78 CNS)	TGI (XF 498 CNS)	TGI (HOP-18 NSCLC)
COC(=O)C1C=CCON2CCc3c(n(C)c4ccccc34)C12 (stereo unspecified)	> 100 µM	> 100 µM	> 100 µM	> 100 µM	> 100 µM	> 100 µM	> 100 µM	
Cc1c(CCO)c(=O)n2c([nH]c3ccccc32)c1C#N	> 100 µM	> 100 µM	> 100 µM	> 100 µM		> 100 µM	> 100 µM	> 100 µM
CCN(CC)c1ccc(N=Nc2ccc([N+](=O)[O-])cc2OC(=O)/C=C/c2ccccc2)c(OC(=O)/C=C/c2ccccc2)c1	> 100 µM	> 100 µM		> 100 µM	> 100 µM	> 100 µM	> 100 µM	9.04 µM
Cc1ccc(C(=O)N(Cc2ccccc2)Cc2ccccc2)cc1N=NN(C)C	> 100 µM	> 100 µM		72.4 µM		> 100 µM		
CCn1c(SC(C)C(=O)c2c(C)n(C)n(-c3ccccc3)c2=O)nc2ccccc2c1=O (stereo unspecified)	> 100 µM	> 100 µM	> 100 µM	> 100 µM		> 100 µM		
O=C1c2ccccc2C(=O)c2c(O)c(NCCCNCCO)cc(O)c21	19.8 µM	22.7 µM		29.8 µM	25 µM	39.8 µM	32.7 µM	17.5 µM
CC1(C)O[C@@H](CCl)C[C@H](C#N)O1	> 100 µM	> 100 µM	> 100 µM			> 100 µM	> 100 µM	> 100 µM
COc1cc(CNc2cnc3cc(N)ccc3n2)cc(OC)c1OC	> 100 µM	2.43 µM	37.7 µM	> 100 µM			> 100 µM	> 100 µM
CCC/C=C1\CCC(CN(C)C)C1=O (stereo unspecified)	5.54 µM	27.1 µM	27.2 µM	3.33 µM			11.1 µM	39 µM
O=S(OC12CC3CC(CC(C3)C1)C2)c1cc(Cl)cc(Cl)c1OCc1ccccc1 (stereo unspecified)	> 100 µM			> 100 µM	> 100 µM	> 100 µM	> 100 µM	
O=c1cc(-c2c[nH]c3ccccc23)[nH]c2cc3c(cc12)OCO3	> 100 µM	> 100 µM	> 100 µM	> 100 µM	> 100 µM		> 100 µM	
CCCC(C)n1c(C)nc2c1C(=O)c1ccccc1C2=O (stereo unspecified)	> 100 µM	30.8 µM	> 100 µM	> 100 µM		> 100 µM	50.1 µM	
C=CCc1cc(-c2cc(CC=C)c(O)c(CN(CC)CC)c2)cc(CN(CC)CC)c1O	> 100 µM	82.5 µM	40 µM	> 100 µM	44.5 µM	> 100 µM		> 100 µM
O=[N+]([O-])c1ccccc1S(=O)(=O)c1ccccc1	> 100 µM	> 100 µM	> 100 µM	> 100 µM	47 µM		> 100 µM	> 100 µM
